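Exposure lasted 48 hours, with cells grown in 96-well plates and compounds tested at five concentrations. Here, GI50 denotes the concentration required for 50% inhibition of growth.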 Calls of active or inactive are those of the source. Rule as the data show it: active = GI50 up to about 1.1 µM and inactive = higher.
Columns and labels:
Experiment in all cases: DTP human tumour cell line panel, 48 h
[1] = test system: OVCAR-4
[2] = test system: SK-OV-3
[3] = test system: NCI-H522
[4] = test system: SNB-75
[5] = test system: SW-620
[6] = test system: HOP-62
[7] = test system: SK-MEL-2
[8] = test system: SNB-19
[9] = test system: UO-31
[10] = test system: RPMI-8226
[11] = test system: CCRF-CEM
[12] = test system: UACC-62
[13] = test system: SF-539
[14] = test system: RXF 393
[15] = test system: NCI-H23
[16] = test system: U-251
[17] = test system: KM12
[18] = test system: A549
[19] = test system: ACHN
[20] = test system: IGROV-1

Measured: GI50

O=C(/C=C/c1ccc(OCc2ccccc2)cc1)NCc1ccc(C(=O)NCc2ccccc2)cc1
active: [14] 0.687 µM
inactive: [1] > 100 µM | [2] > 100 µM | [3] > 100 µM | [4] 36.6 µM | [5] > 100 µM | [6] > 100 µM | [7] > 100 µM | [8] > 100 µM | [9] > 100 µM | [10] > 100 µM | [11] > 100 µM | [12] > 100 µM | [13] > 100 µM | [15] > 100 µM | [16] > 100 µM | [17] > 100 µM | [18] > 100 µM | [19] > 100 µM | [20] > 100 µM

CN(CCO)Cc1ncccc1O
inactive: [1] > 100 µM | [2] > 100 µM | [3] > 100 µM | [4] > 100 µM | [5] > 100 µM | [6] > 100 µM | [7] > 100 µM | [8] > 100 µM | [9] > 100 µM | [10] > 100 µM | [11] 68.5 µM | [12] > 100 µM | [13] > 100 µM | [14] > 100 µM | [15] > 100 µM | [16] > 100 µM | [17] > 100 µM | [18] > 100 µM | [19] > 100 µM | [20] > 100 µM

CON(C)C(C#N)=C(C#N)C#N
inactive: [1] > 10 µM | [2] > 10 µM | [3] > 10 µM | [4] > 10 µM | [5] > 10 µM | [6] > 10 µM | [7] > 10 µM | [8] > 10 µM | [9] > 10 µM | [10] > 10 µM | [11] > 10 µM | [12] > 10 µM | [13] > 10 µM | [14] > 10 µM | [15] > 10 µM | [16] > 10 µM | [17] > 10 µM | [18] > 10 µM | [19] > 10 µM | [20] > 10 µM

O=C(NCCCl)SCCO
inactive: [1] > 100 µM | [2] > 100 µM | [3] > 100 µM | [4] > 100 µM | [5] > 100 µM | [6] > 100 µM | [7] > 100 µM | [8] > 100 µM | [9] > 100 µM | [10] > 100 µM | [11] > 100 µM | [12] > 100 µM | [13] > 100 µM | [14] > 100 µM | [15] > 100 µM | [16] > 100 µM | [17] > 100 µM | [18] > 100 µM | [19] > 100 µM | [20] > 100 µM
